# Laboratory results taken from patent US20020052409A1, “Compounds and methods for treating mitochondria-associated diseases” (priority 1998, published 2002).
# How the values were obtained:
# 1685 cells [1] = test: Thapsigargin induced apoptosis (cell death, propidium iodide); type: cell-based, human; details: for Δ Cell Viability: [% Non-Viable Cells (with Thapsigargin, without Cmpd)] − [% Non-Viable Cells (with Thapsigargin, with Cmpd)], agent 100 μM; for % Non-Viable Cells with Thapsigargin and with Cmpd. / cytotoxicity at 100 µM: thapsigargin 1 μM plus agent 100 μM, 24 hours; for cytotoxicity at 100 µM: Homo sapiens, read-out: % Non-Viable Cells with Thapsigargin and with Cmpd.
# Method: In another aspect of the apoptosis assays, the ratio of living to dead cells, or the proportion of dead cells, in a population of cells exposed to an apoptogen is determined as a measure of the ultimate consequence of apoptosis. Living cells can be distinguished from dead cells using any of a number of techniques known to those skilled in the art.
# In order to determine the effect of compounds of this invention on the final endpoint of apoptosis (cell death), the following assays were carried out. […] Cells were plated (3×10^4 cells per well) on 96-well plates 48 hours prior to thapsigargin treatment. Thapsigargin (Calbiochem, La Jolla, Calif.) alone (final concentration, 1 μM), thapsigargin (1 μM) plus agent final concentration, 100 μM), agent alone (100 μM) in growth media, or growth media devoid of both thapsigargin and agent, were added to cells in four separate wells.
# Twenty-four hours after thapsigargin +/− agent treatment, propidium iodide (Sigma Chemical Co., St. Louis, Mo.) was added to each well at a final concentration of 10 μg/ml per well. […] The resulting fluorescence values correspond to cells in the monolayer of a well that are non-viable.
# (§1) Next, the media was aspirated, and the monolayer was fixed (killed) by adding 100 μl of 100% ethanol to each well followed by incubation at ambient temperature for 10 minutes. The fluorescense in each well was then read again. The fluorescence values resulting from the second reading correspond to the total number of cells (whether viable or non-viable at the time of the initial fluorescence reading) present in the monolayer of a well.
# 1685 cells [2] = test: Cytotoxic effects of compounds, no thapsigargin (propidium iodide); type: cell-based, human
# Method: In order to determine the effect of compounds of this invention on the final endpoint of apoptosis (cell death), the following assays were carried out. The cells used were 1685 cells, “1685” being the designation of a cybrid cell line derived from SH-SY5Y and containing mitochondria from a patient having Alzheimer's disease (see U.S. Pat. No. 5,888,498, issued Mar. 30, 1999, hereby incorporated by reference). Cells were plated (3×10^4 cells per well) on 96-well plates 48 hours prior to thapsigargin treatment. Thapsigargin (Calbiochem, La Jolla, Calif.) alone (final concentration, 1 μM), thapsigargin (1 μM) plus agent final concentration, 100 μM), agent alone (100 μM) in growth media, or growth media devoid of both thapsigargin and agent, were added to cells in four separate wells.
# Twenty-four hours after thapsigargin +/− agent treatment, propidium iodide (Sigma Chemical Co., St. Louis, Mo.) was added to each well at a final concentration of 10 μg/ml per well. The cells were incubated at ambient temperature for 10 minutes, after which the fluorescence (excitation max=536 nm, 544 nm used for excitation; emission max=617, readings at 612 nm) was determined for each individual well in a fmax™ fluorescence microplate reader (Molecular Devices, Sunnyvale, Calif.). The resulting fluorescence values correspond to cells in the monolayer of a well that are non-viable.
# as §1
# The results, presented in Table 4 below, are expressed as the percentage of non-viable cells as a proportion of the […] cells (fixed controls).
# The ΔCell Viability values resulting from treating cells with agents in this class in the absence of thapsigargin (Table 4, infra) closely parallel the ΔCell Viability values that result when cells are treated with the respective agent and thapsigargin ([…]).
# [3] = tested on: human cytoplasmic hybrid (“cybrid”) cells; test: Assay for mitochondrial permeability transition using DASPMI (ionomycin-induced fluorescence decay); type: cell-based; details: DASPMI-loaded cybrid cells, ionomycin induced membrane potential collapse
# From the text: B. Assay for Mitochondrial Permeability Transition (MPT) Using 2-,4-Dimethvlaminostyryl-N-Methvlpyridinium (DASPMI).
# According to this assay, one may determine the ability of a mitochondria protecting agent of the invention to inhibit the loss of mitochondrial membrane potential that accompanies mitochondrial dysfunction. […] This loss of membrane potential or mitochondrial permeability transition (MPT) can be quantitatively measured using the mitochondria-selective fluorescent probe 2-,4-dimethylaminostyryl-N-methylpyridinium (DASPMI).
# Upon introduction into cell cultures, DASPMI accumulates in mitochondria in a manner that is dependent on, and proportional to, mitochondrial membrane potential. If mitochondrial function is disrupted in such a manner as to compromise membrane potential, the fluorescent indicator compound leaks out of the membrane bounded organelle with a concomitant loss of detectable fluorescence. Fluorimetric measurement of the rate of decay of mitochondria associated DASPMI fluorescence provides a quantitative measure of loss of membrane potential, or MPT.
# Culture supernatants are then removed and various concentrations of candidate mitochondria protecting agents diluted into HBSS from DMF stocks, or vehicle controls, are added at various concentrations. Mitochondria protecting agents are introduced to cells either before, or at the same time as, introduction of the cells to ionomycin (described below).
# Fluorescence of each microculture in the 96-well plate is quantified immediately using a Molecular Devices fmax™ fluorimetric plate reader (Molecular Devices Corp., Sunnyvale, Calif.; excitation wavelength=485 nm; emission wavelength=590 nm) and to fluorescence is recorded. Thereafter, induction of mitochondrial membrane potential collapse is initiated by the addition of ionomycin (Calbiochem, San Diego, Calif.). Ionomycin stock solutions of various concentrations from 0.1-40 μM are prepared in warm Hank's balanced salt solution (HBSS) and diluted for addition to cells to achieve a final concentration of 0.05-20 μM, with final concentrations of 4-10 μM being preferred. Fluorescence decay of DASPMI-loaded, ionomycin induced cells is monitored as a function of time from 0-500 seconds following addition of ionomycin. The maximum negative slope (V-max) is calculated from a subset of the data using analysis software provided by the fluorimetric plate reader manufacturer. In addition, the initial and final signal intensities are determined and the effects of candidate mitochondria protecting agents on the rate of signal decay are quantified.
# [4] = tested on: cybrid cells (MixCon, 1685 cells); test: Ionomycin induced apoptosis in cybrid cells: cytochrome c release (ProteinChip/SELDI); type: cell-based, human; details: 100 μM at the same time ionomycin (10 μM) was introduced; FIGURE
# From the text: In another aspect of the apoptosis assays, quantification of the mitochondrial protein cytochrome c that has leaked out of mitochondria in apoptotic cells may provide an apoptosis indicator that can be readily determined (Liu et al., Cell 86:147-157, 1996). Such quantification of cytochrome c may be performed spectrophotometrically, immunochemically or by other well established methods for detecting the presence of a specific protein. Release of cytochrome c from mitochondria in cells challenged with apoptotic stimuli (e.g., ionomycin, a well known calcium ionophore) can be followed by a variety of immunological methods. Matrix-assisted laser desorption ionization time of flight mass (MALDI-TOF) spectrometry coupled with affinity capture is particularly suitable for such analysis since apo-cytochrome c and holo cytochrome c can be distinguished on the basis of their unique molecular weights. […] The molecular weight of the protein is determined by its time of flight to the detector of the SELDI mass spectrometer. […]
# Cytochrome c antibody was covalently bound to solid support chips containing a pre-activated surface (ProteinChip, Ciphergen, Palo Alto, Calif.). […] After removal of the Tris-saline buffer, the chip was rinsed with 1× PBS and was ready for capture of the antigen. […]
# [5] = tested on: SH-SY5Y neuroblastoma cells; test: Ionomycin-induced apoptosis in neuroblastoma cells (membrane blebbing, light microscopy); type: cell-based, human; details: 2 mM, simultaneously with 10 μM ionomycin; 6h incubation; ionomycin alone approximately 80%, untreated <5%
# Method: SH-SY5Y neuroblastoma cells (1×10^5 cells) were rinsed with one volume 1X PBS, and then treated with 10 μM ionomycin (Calbiochem, San Diego, Cass.) in DMEM supplemented with 10% fetal calf serum (FCS) (Gibco, Life Technologies, Grand Island, N.Y.) for 10 minutes, followed by two washes with DMEM (10% FCS). After 6h incubation at 37° C. in DMEM (10% FCS), cells were visualized by light microscopy (20X magnification). […] When cells were simultaneously treated with ionomycin and 2 mM creatine, the proportion of cells undergoing apoptosis as evidenced by membrane blebbing was reduced to approximately 10%.
SMILES,Δ Cell Viability (1685 cells [1]) [%],% Non-Viable Cells with Thapsigargin and with Cmpd. (1685 cells [1]) [%],further results
COc1cc(C(=O)O)ccc1NC(=N)N [(12)],1.8,37.5,–
CCCCCCCCc1ccc(NC(=N)N)cc1 [Compound (31)],–,100.0,Δ Cell Viability (1685 cells [2]): −83.5%
N=C(N)Nc1ccc(O)c(C(=O)O)c1 [(23)],0.6,49.8,–
CCCCCCCCc1ccc(O)c(NC(=N)N)c1 [Compound (6)],–,–,"cytotoxicity at 100 µM (1685 cells [1]): 122%; Δ Cell Viability (1685 cells [2]; no thapsigargin, [% Non-Viable Cells (without Cmpd)] − [% Non-Viable Cells (with Cmpd)]): −109.0%; % Non-Viable Cells with Cmpd. (1685 cells [2]; no thapsigargin, agent alone 100 μM, 24 hours): 125.2%"
N=C(N)Nc1ccc(N2CCOCC2)cc1 [(27)],7.9,42.5,–
NC1=NCCN1CC(=O)O [Cyclocreatine],–,–,IC50 [3]: 3000 µM
N=C(N)NC(=N)Nc1ccc(C(=O)O)cc1 [(34)],2.9,42.4,–
CC(C)(C)c1cc(CNNC(=N)N)cc(C(C)(C)C)c1O [Compound (1)],3.2,–,"ΔCell Viability (1685 cells [1]; (+thapsigargin, −compound)—(+thapsigargin, +compound), approximate values): about 3.5; cytotoxicity at 100 µM (1685 cells [1]): 38.3%"
CN(Cc1cc(C(C)(C)C)c(O)c(C(C)(C)C)c1)NC(=N)N [Compound (4)],2.1,–,cytotoxicity at 100 µM (1685 cells [1]): 43.8%; IC50 [3]: 10 µM
N=C(N)Nc1ccc(C(=O)O)cc1 [4-Guanidinobenzoic Acid],–,–,IC50 [3]: 1000 µM
N=C(N)Nc1ccccc1CO [(19)],–,44.3,–
N=C(N)NCCc1ccc(O)c(O)c1 [(28)],–,52.3,–
N=C(N)Nc1cc(C(F)(F)F)cc(C(F)(F)F)c1 [(14)],–,47.9,–
COc1cc(NC(=N)N)c(Cl)cc1C(=O)O [(13)],–,52.8,Δ Cell Viability (1685 cells [2]): −22.2%
COc1cc(NC(=N)N)cc(OC)c1OC [(3)],–,46.7,–
N=C(N)Nc1ccc(F)cc1 [(17)],–,56.9,Δ Cell Viability (1685 cells [2]): −23.6%
N=C(N)NC(=N)Nc1ccccc1 [(1 1)],–,–,cytochrome c release [4]: attenuation of cytochrome release
CN(CC(=O)O)C(=N)N [Creatine],–,–,proportion of cells undergoing apoptosis as evidenced by membrane blebbing [5]: approximately 10%; IC50 [3]: 2000 µM
CCCCCCOc1ccc(NC(=N)N)cc1 [(16)],–,121.2,Δ Cell Viability (1685 cells [2]): −106.7%
N=C(N)Nc1cc(F)cc(F)c1 [(15)],–,42.2,–
